This is an account of results in patent US10590079B2, “Cyano-substituted indoles as LSD1 inhibitors” (Novartis AG, priority 2016, dated 2020).

Like-named read-outs stand apart in the source and are kept apart here.

One experiment addresses T1, full-length LSD1 (Homo sapiens, UniProt O60341).
T1 construct: the full-length LSD1 and 0.5 μM FAD in reaction buffer
The experiment is described as follows: FL-LSD1 LC-MS assay. The experiment is classed as biochemical. As to conditions: 0.4 nM FL-LSD1, 0.25 μM FAD, 0.5 μM H3K4me1 peptide, 60 min; read-out: (a) IC50 LC-MS Qualified assay. Here is the method: Representative compounds of the present invention were serially and separately diluted 3-fold in DMSO to obtain a total of twelve concentrations. […] A 5 μL solution of 1 μM of the peptide substrate H3K4me1 (histone H3[1-21]-biotin) in reaction buffer was added to each initiate reaction. […] The conversion ratio of H3K4me1 substrate to the H3K4me0 product was calculated by dividing the peak area of the H3K4me0 peptide by the total peak area of all those two peptides on the assumption that the ionization efficiency of those peptides is the same. The data were then fit to a dose response equation using the program Helios to get the IC50 values of the test compound.

Another experiment deals with Molm13 cell. Put plainly: Anti-proliferation assay in Molm13 cell. The experiment is classed as cell-based, human. As to conditions: 6 days, cell titer glow, read-out: (b) IC50 anti proliferative assay in molm13 cell. Here is the method:
Anti-Proliferation Assay in Molm13 Cell
After cell seeding, a compound of the present invention was added to the cell media (in concentrations ranging from 0 to 100 μM, 3× dilution series). After 6 days, 100 ul/well cell titer glow (Promega, cat#G7573) was added into the cell culture, and luminerence was read on Envision (Pelkin Elmer) to determine the viable cells. The percentage inhibition was calculated against the samples treated with DMSO.

The next experiment concerns CD11b. The experiment is described as follows: CD11b FACS assay. The experiment is classed as cell-based. As to conditions: Homo sapiens, THP-1; Thp1 cell, 96 hrs; read-out: (c) IC50 CD11b FACS assay. Here is the method:
Representative compounds of the present invention were serially and separately diluted 5-fold in DMSO to obtain a total of 6 concentrations. Then the compounds were added to Thp1 cell cultured in 96-well round bottom plate (Costar, Cat#3099) at 1:1000 dilution to obtain the highest concentration of 10 μM. The cells were further cultured for 96 hrs before FACS procedure.
FACS protocol: FACS was performed using standard flowcytometry. Cell was collected and washed with FACS buffer twice (2% heat inactivated FBS in PBS) in 96-well plate, and stained with antibody against CD11b, or isotype control, then washed with FACS buffer for 3 times before reading on Guava 8HT (Merck Millipore) Results were analyzed using Flowjo, and mean fluoreance was calculated and normalized to the cells treated with DMSO. The fold value were then analyzed via Graphpad Prism and fit to a dose response curve to get IC50 value of the test compound. Antibodies for FACS: PE mouse IgG1 k chain (BD Bioscience, #555749), PE mouse anti human CD11b (BD Bioscience, #555388)

With `Cc1cc2c(cc1C#N)c(-c1cncc(N)c1C)cn2C1CCC(O)C1` (single isomer, unassigned) [Example 87, Cis-3-(5-amino-4-methylpyridin-3-yl)-1-(3-hydroxycyclopentyl)-6-methyl-1H-indole-5-carbonitrile], the IC50 on full-length LSD1 was 15 nM; in the experiment on Molm13 cell (Homo sapiens, MOLM-13, 144 h), 76 nM.

On to `Cc1c(N)cccc1-c1cn(C2CCCC(O)C2)c2ccc(C#N)cc12` (stereo not drawn) [Example 83, Trans-3-(3-amino-2-methylphenyl)-1-(3-hydroxycyclohexyl)-1H-indole-5-carbonitrile], for which the IC50 at full-length LSD1 came to 60 nM; in the experiment with Molm13 cell (Homo sapiens, MOLM-13, 144 h), 270 nM.

As to `CN[C@H]1CC[C@H](n2cc(-c3cccc(N)c3C)c3cc(C#N)c(C)cc32)CC1` [Example 78, Trans-3-(3-amino-2-methylphenyl)-6-methyl-1-(4-(methylamino)cyclohexyl)-1H-indole-5-carbonitrile], the IC50 in the experiment with Molm13 cell (Homo sapiens, MOLM-13, 144 h) is 29 nM.

Turning to `Cc1cc2c(cc1C#N)c(-c1cccc(N)c1C)cn2C1CCNCC1` [Example 97, 3-(3-amino-2-methylphenyl)-6-methyl-1-(piperidin-4-yl)-1H-indole-5-carbonitrile], the IC50 at full-length LSD1 was 14 nM; in the experiment with Molm13 cell (Homo sapiens, MOLM-13, 144 h), 926 nM.

Turning to `COc1ccc(-n2cc(-c3cncc(N)c3C)c3cc(C#N)c(C)cc32)cc1` [Example 71, 3-(5-amino-4-methylpyridin-3-yl)-1-(4-methoxyphenyl)-6-methyl-1H-indole-5-carbonitrile], the IC50 at full-length LSD1 is 3 nM; with Molm13 cell (Homo sapiens, MOLM-13, 144 h), 51 nM; in the experiment with CD11b it was 801 nM.

For `COc1ccc(-n2cc(-c3cccc(N)c3C)c3cc(C#N)c(C)cc32)cc1` [Example 65, 3-(3-amino-2-methylphenyl)-1-(4-methoxyphenyl)-6-methyl-1H-indole-5-carbonitrile], the IC50 on full-length LSD1 turned out to be 3 nM; in the experiment with Molm13 cell (Homo sapiens, MOLM-13, 144 h), 123 nM; in the experiment with CD11b, 315 nM.

For the compound `Cc1cc2c(cc1C#N)c(-c1cccc(N)c1C)cn2[C@H]1CC[C@@H](O)CC1` [Example 95, Cis-3-(3-amino-2-methylphenyl)-1-(4-hydroxycyclohexyl)-6-methyl-1H-indole-5-carbonitrile], the IC50 with Molm13 cell (Homo sapiens, MOLM-13, 144 h) stood at 49 nM.

On to `Cc1cc2c(cc1C#N)c(-c1cncc(N)c1C)cn2[C@H]1CC[C@H](O)CC1` [Example 94, Trans-3-(5-amino-4-methylpyridin-3-yl)-1-(4-hydroxycyclohexyl)-6-methyl-1H-indole-5-carbonitrile], for which the IC50 was 16 nM at full-length LSD1 and 73 nM in the experiment with Molm13 cell (Homo sapiens, MOLM-13, 144 h).

With `Cc1c(N)cccc1-c1cn(C2CCC(O)C2)c2ccc(C#N)cc12` (racemic) [Example 80, Trans-3-(3-amino-2-methylphenyl)-1-(3-hydroxycyclopentyl)-1H-indole-5-carbonitrile], the half-maximal inhibitory concentration (IC50) turned out to be 24 nM at full-length LSD1 and 390 nM in the experiment on Molm13 cell (Homo sapiens, MOLM-13, 144 h).

On to `Cc1cc2c(cc1C#N)c(-c1cncc(N)c1C)cn2C1CCC(O)C1` (single isomer, unassigned) [Example 88, Trans-3-(5-amino-4-methylpyridin-3-yl)-1-(3-hydroxycyclopentyl)-6-methyl-1H-indole-5-carbonitrile], for which the IC50 at full-length LSD1 turned out to be 15 nM; with Molm13 cell, 90 nM.

For the compound `Cc1cc2c(cc1C#N)c(-c1cccc(N)c1C)cn2[C@H]1C[C@H](O)C1` [Example 100, Trans-3-(3-amino-2-methylphenyl)-1-(3-hydroxycyclobutyl)-6-methyl-1H-indole-5-carbonitrile], in the experiment on Molm13 cell (Homo sapiens, MOLM-13, 144 h), the half-inhibitory concentration (IC50) came to 48 nM.

For the compound `Cc1cc2c(cc1C#N)c(-c1cccc(N)c1C)cn2[C@H]1CC[C@H](O)CC1` [Example 93, Trans-3-(3-amino-2-methylphenyl)-1-(4-hydroxycyclohexyl)-6-methyl-1H-indole-5-carbonitrile], the IC50 in the experiment with CD11b is 73 nM.
